Laboratory results: US8513423B2 (Janssen Pharmaceutica, NV, priority 2010, dated 2013)
Changes are numbered by the printed parent chain. Read-outs that look alike come from different tables or passages of the source.

Legend:
[1] = target: T1, purified mutant MGL (mut-MGLL 11-313 L179S L186S) (Homo sapiens, UniProt Q99685, L169S/L176S); experiment: MGL enzyme activity assay (4MU-B cleavage), mutant MGL; type: biochemical; details: 10 μM 4MU-B, 5 nM enzyme, 37° C., read-out: MGL mutant inh IC50
T1 construct: purified mutant MGL (mut-MGLL 11-313 L179S L186S)
T1 sequence (Q99685 1-303 L169S/L176S): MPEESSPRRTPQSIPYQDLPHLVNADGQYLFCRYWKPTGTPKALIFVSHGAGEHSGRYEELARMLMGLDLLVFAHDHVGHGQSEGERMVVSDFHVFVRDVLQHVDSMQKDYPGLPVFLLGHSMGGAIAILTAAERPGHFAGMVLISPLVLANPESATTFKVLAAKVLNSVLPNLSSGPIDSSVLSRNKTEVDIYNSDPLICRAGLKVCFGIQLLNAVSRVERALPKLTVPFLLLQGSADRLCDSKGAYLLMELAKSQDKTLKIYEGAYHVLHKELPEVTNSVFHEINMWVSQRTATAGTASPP
Protocol: All rate-based assays were performed in black 384-well polypropylene PCR microplates (Abgene) in a total volume of 30 μL. Substrate 4-methylumbelliferyl butyrate (4MU-B; Sigma) and either purified mutant MGL (mut-MGLL 11-313 L179S L186S) or purified wild type MGL (wt-MGLL 6H-11-313) were diluted separately into 20 mM PIPES buffer (pH=7.0), containing 150 mM NaCl and 0.001% Tween 20. Compounds of Formula (I) were pre-dispensed (50 nL) into the assay plate using a Cartesian Hummingbird prior to adding 4MU-B (25 μL of 1.2× solution to a final concentration of 10 μM) followed by enzyme (5 μL of a 6× solution to a final concentration of 5 nM) to initiate the reaction. Final compound concentrations ranged from 17 to 0.0003 μM. The fluorescence change due to 4MU-B cleavage was monitored with excitation and emission wavelengths of 335 and 440 nm, respectively, and a bandwidth of 10 nm (Safire^2, Tecan) at 37° C. for 5 min.
The IC50 values for compounds of Formula (I) were determined using Excel from a fit of the equation to the concentration-response plot of the fractional activity as a function of inhibitor concentration.

[2] = target: T2, purified wild type MGL (wt-MGLL 6H-11-313) (Homo sapiens, UniProt Q99685); experiment: MGL enzyme activity assay (4MU-B cleavage), wild type MGL; type: biochemical; details: 10 μM 4MU-B, 5 nM enzyme, 37° C., read-out: MGL wild type inh IC50
T2 construct: purified wild type MGL (wt-MGLL 6H-11-313)
T2 sequence (Q99685 1-303): T1 sequence (Q99685 1-303 L169S/L176S) with S169L, S176L
Method in brief: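 Enzyme (5 nM final) cleaved 4MU-B (10 μM final) in 20 mM PIPES pH 7.0 with 150 mM NaCl and 0.001% Tween 20. Compounds were tested at 17 to 0.0003 μM final. Fluorescence (ex 335/em 440 nm) was monitored at 37° C for 5 min, and IC50 was fitted from fractional activity versus inhibitor concentration.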

[3] = target: T3, MGL (Rattus norvegicus, UniProt Q8R431); experiment: 2-AG accumulation assay in rat brain homogenate; type: biochemical; details: compound @1 μM, read-out: Rat Brain 2AG % VehCntrl (%) @1 μM
T3 construct: one g rat brain was homogenized; from tissue; host or cells: rat brain homogenate
T3 sequence (Q8R431 1-303): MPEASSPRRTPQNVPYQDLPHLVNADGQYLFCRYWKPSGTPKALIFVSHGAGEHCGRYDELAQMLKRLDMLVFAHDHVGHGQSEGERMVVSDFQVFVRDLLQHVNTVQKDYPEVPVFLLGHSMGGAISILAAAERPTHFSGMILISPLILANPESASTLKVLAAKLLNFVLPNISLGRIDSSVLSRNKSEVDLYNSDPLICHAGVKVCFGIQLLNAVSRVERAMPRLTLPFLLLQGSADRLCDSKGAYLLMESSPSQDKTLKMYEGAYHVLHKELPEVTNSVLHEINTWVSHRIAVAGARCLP
Method in brief: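 Inhibition of rat MGL was assessed by measuring 2-AG build-up in brain homogenate. After a 15-min preincubation at 37° C., 10 mM CaCl2 was added and the 5 mL reaction ran 15 min more at 37° C. It was quenched with 6 mL 2:1 chloroform/methanol, extracted 2-AG was measured by HPLC/MS, and accumulation with compound was expressed as a percentage of vehicle.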

[4] = target: T4, mutant MGL (Homo sapiens, UniProt Q99685, L169S/L176S); experiment: MGL ThermoFluor assay - mutant; type: binding
T4 construct: purified mutant MGL (mut-MGLL 11-313 L179S L186S)
T4 sequence (Q99685 1-303 L169S/L176S): T1 sequence (Q99685 1-303 L169S/L176S)
Method in brief: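 Thermal shift binding with 0.07 mg/ml L169S/L176S MGL, 100 μM 1,8-ANS, 200 mM NaCl, 0.001% Tween-20, 50 mM PIPES pH 7.0. Heated 40–90 °C at 1 °C/min, fluorescence (em 500 nm) tracked to give Tm; Kd fitted from 11-point concentration–Tm response, qKd when stocks quantified by qNMR.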

[5] = 0.07 mg/ml mutant MGL, pH=7.0, read-out: MGL mutant ThermoFluor Kd
[6] = compound concentration measured by qNMR, read-out: MGL mutant ThermoFluor qKd (using qNMR conc.)

SMILES | IC50 [1] [nM] | IC50 [2] [nM] | 2-AG accumulation, percent of vehicle control at 1 µM [3] [%] | Kd [4, 5] [nM] | Kd [4, 6] [nM]
O=C(c1ccc(-c2ccccc2)cc1)N1CC(C2CCN(C(=O)c3cscn3)CC2)C1 [Cpd 1, 4-[1-(Biphenyl-4-ylcarbonyl)azetidin-3-yl]-1-(1,3-thiazol-4-ylcarbonyl)piperidine] | 79 | 258 | 109 | 100 | –
O=C(c1ccc(-c2ccccc2)cc1)N1CC(C2CCN(C(=O)c3nccs3)CC2)C1 [Cpd 2, 4-[1-(Biphenyl-4-ylcarbonyl)azetidin-3-yl]-1-(1,3-thiazol-2-ylcarbonyl)piperidine] | < 5 | < 5 | 329 | 8.9 | –
O=C(c1ccc(Cc2ccc(C(F)(F)F)cc2)cc1)N1CCC(C2CN(C(=O)c3ccc[nH]3)C2)CC1 [Cpd 65, 4-[1-(1H-Pyrrol-2-ylcarbonyl)azetidin-3-yl]-1-({4-[4-(trifluoromethyl)benzyl]phenyl}carbonyl)piperidine] | – | < 5 | 241 | – | 40.4
Cc1c(C(=O)N2CC(C3CCN(C(=O)c4cscn4)CC3)C2)sc2cc(C(F)(F)F)ccc12 [Cpd 14, 4-(1-{[3-Methyl-6-(trifluoromethyl)-1-benzothiophen-2-yl]carbonyl}azetidin-3-yl)-1-(1,3-thiazol-4-ylcarbonyl)piperidine] | – | 5 | 231 | 5 | –
O=C(c1cccc(-c2cccc(F)c2)c1)N1CCC(C2CN(C(=O)c3nccs3)C2)CC1 [Cpd 51, 1-[(3′-Fluorobiphenyl-3-yl)carbonyl]-4-[1-(1,3-thiazol-2-ylcarbonyl)azetidin-3-yl]piperidine] | – | < 5 | 266 | – | 18
O=C(c1ccc2c(ccn2-c2ccc(F)c(F)c2)c1)N1CC(C2CCN(C(=O)c3cscn3)CC2)C1 [Cpd 38] | – | 5 | 425 | 15.5 | –
O=C(c1nccs1)N1CCC(C2CN(C(=O)c3ccc(-c4ccccc4)cc3F)C2)CC1 [Cpd 15, 4-{1-[(3-Fluorobiphenyl-4-yl)carbonyl]azetidin-3-yl}-1-(1,3-thiazol-2-ylcarbonyl)piperidine] | – | 7 | 281 | 9 | –
O=C(c1ccc2c(ccn2-c2ccc(C(F)(F)F)cc2)c1)N1CC(C2CCN(C(=O)c3ccc[nH]3)CC2)C1 [Cpd 43, 5-({3-[1-(1H-Pyrrol-2-ylcarbonyl)piperidin-4-yl]azetidin-1-yl}carbonyl)-1-[4-(trifluoromethyl)phenyl]-1H-indole] | – | < 5 | 611 | – | 26.4
O=C(c1ccc(Cc2cccc(C(F)(F)F)c2)cc1)N1CCC(C2CN(C(=O)c3ccc[nH]3)C2)CC1 [Cpd 59, 4-[1-(1H-Pyrrol-2-ylcarbonyl)azetidin-3-yl]-1-({4-[3-(trifluoromethyl)benzyl]phenyl}carbonyl)piperidine] | – | 11 | 346 | 20.2 | 9.4
O=C(c1ccc(Cc2ccc(C(F)(F)F)cc2)cc1)N1CCC(C2CN(C(=O)c3nccs3)C2)CC1 [Cpd 63, 4-[1-(1,3-Thiazol-2-ylcarbonyl)azetidin-3-yl]-1-({4-[4-(trifluoromethyl)benzyl]phenyl}carbonyl)piperidine] | – | < 5 | 435 | – | 17.4
O=C(c1ccc(-c2cccc(C(F)(F)F)c2)cc1)N1CC(C2CCN(C(=O)c3ccc[nH]3)CC2)C1 [Cpd 22, 1-(1H-Pyrrol-2-ylcarbonyl)-4-(1-{[3′-(trifluoromethyl)biphenyl-4-yl]carbonyl}azetidin-3-yl)piperidine] | – | 8 | 470 | 6.6 | –
Cc1c(C(=O)N2CC(C3CCN(C(=O)c4ccc[nH]4)CC3)C2)sc2cc(C(F)(F)F)ccc12 [Cpd 26, 4-(1-{[3-Methyl-6-(trifluoromethyl)-1-benzothiophen-2-yl]carbonyl}azetidin-3-yl)-1-(1H-pyrrol-2-ylcarbonyl)piperidine] | – | < 5 | 303 | 3.6 | –
O=C(c1ccc2c(ccn2-c2ccc(C(F)(F)F)cc2)c1)N1CCC(C2CN(C(=O)c3cscn3)C2)CC1 [Cpd 76, 5-({4-[1(1,3-Thiazol-4-ylcarbonyl)azetidin-3-yl]piperidin-1-yl}carbonyl)-1-[4-(trifluoromethyl)phenyl]-1H-indole] | – | 11.4 | 731 | – | 8.3
O=C(c1ccc(-c2ccccc2)cc1)N1CC(C2CCN(C(=O)c3ccns3)CC2)C1 [Cpd 3, 4-[1-(Biphenyl-4-ylcarbonyl)azetidin-3-yl]-1-(isothiazol-5-ylcarbonyl)piperidine] | – | 33.9 | 135 | 55.7 | –
O=C(c1ccc2c(ccn2-c2ccc(F)cc2)c1)N1CC(C2CCN(C(=O)c3ccc[nH]3)CC2)C1 [Cpd 42, 1-(4-Fluorophenyl)-5-({3-[1-(1H-pyrrol-2-ylcarbonyl)piperidin-4-yl]azetidin-1-yl}carbonyl)-1H-indole] | – | < 5 | 498 | – | 24.5
O=C(c1ccc2nc(-c3ccccc3)oc2c1)N1CC(C2CCN(C(=O)c3cscn3)CC2)C1 [Cpd 34, 2-Phenyl-6-({3-[1-(1,3-thiazol-4-ylcarbonyl)piperidin-4-yl]azetidin-l-yl}carbonyl)-1,3-benzoxazole] | – | 54.4 | 517 | 198 | –
O=C(c1ccc2nc(-c3ccccc3)oc2c1)N1CCC(C2CN(C(=O)c3nccs3)C2)CC1 [Cpd 66, 2-Phenyl-6-({4-[1-(1,3-thiazol-2-ylcarbonyl)azetidin-3-yl]piperidin-1-yl}carbonyl)-1,3-benzoxazole] | – | 19.2 | 889 | – | 6.7
O=C(c1ccc2nc(-c3ccccc3)oc2c1)N1CCC(C2CN(C(=O)c3ccc[nH]3)C2)CC1 [Cpd 68, 2-Phenyl-6-({4-[1-(1H-pyrrol-2-ylcarbonyl)azetidin-3-yl]piperidin-1-yl}carbonyl)-1,3-benzoxazole] | – | 62.1 | 453 | – | 14.5
